Results from ChEMBL document CHEMBL1201862, “PubChem BioAssay data set” (2004).
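Five compound concentrations were applied to cells in 96-well plates for 48 hours; endpoints were derived by simple linear interpolation of the resulting dose-response curve. At the GI50, growth is halved.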 Calls of active or inactive are those of the source. Rule as the data show it: active = GI50 up to about 1.1 µM and inactive = higher.

Assays:
Assay in all cases: inhibition of tumour cell growth, NCI panel, 48 h
COLO 205 = test system: COLO 205
NCI-H226 = test system: NCI-H226
DU-145 = test system: DU-145
HOP-92 = test system: HOP-92
UACC-257 = test system: UACC-257
A549 = test system: A549
MCF7 = test system: MCF7
NCI-H522 = test system: NCI-H522
SNB-75 = test system: SNB-75
RPMI-8226 = test system: RPMI-8226
CCRF-CEM = test system: CCRF-CEM
KM12 = test system: KM12
786-0 = test system: 786-0
CAKI-1 = test system: CAKI-1
MDA-MB-435 = test system: MDA-MB-435
PC-3 = test system: PC-3
Malme-3M = test system: Malme-3M
NCI/ADR-RES = test system: NCI/ADR-RES
MDA-MB-231 = test system: MDA-MB-231
SF-268 = test system: SF-268
HL-60 = test system: HL-60
TK-10 = test system: TK-10
SNB-19 = test system: SNB-19
BT-549 = test system: BT-549
MOLT-4 = test system: MOLT-4
HCT-116 = test system: HCT-116
SF-539 = test system: SF-539
MDA-N = test system: MDA-N
RXF 393 = test system: RXF 393
NCI-H23 = test system: NCI-H23
UO-31 = test system: UO-31
T47D = test system: T47D
SK-OV-3 = test system: SK-OV-3
UACC-62 = test system: UACC-62
SW-620 = test system: SW-620
NCI-H460 = test system: NCI-H460
HCT-15 = test system: HCT-15
SK-MEL-2 = test system: SK-MEL-2
U-251 = test system: U-251
Hs-578T = test system: Hs-578T
HT-29 = test system: HT-29
SK-MEL-5 = test system: SK-MEL-5
OVCAR-8 = test system: OVCAR-8
IGROV-1 = test system: IGROV-1
SF-295 = test system: SF-295
OVCAR-5 = test system: OVCAR-5
EKVX = test system: EKVX
M14 = test system: M14
ACHN = test system: ACHN
SN12C = test system: SN12C

Measured: GI50

CC(C(=O)NCNC(=O)c1ccccc1)C(=O)Nc1ccccc1 (stereo not given)
> 100 µM: HCT-15
inactive: COLO 205 > 100 µM | NCI-H226 > 100 µM | DU-145 > 100 µM | HOP-92 > 100 µM | UACC-257 > 100 µM | A549 > 100 µM | MCF7 > 100 µM | NCI-H522 > 100 µM | SNB-75 > 100 µM | RPMI-8226 > 100 µM | CCRF-CEM > 100 µM | KM12 > 100 µM | 786-0 > 100 µM | CAKI-1 > 100 µM | MDA-MB-435 > 100 µM | PC-3 > 100 µM | Malme-3M > 100 µM | NCI/ADR-RES > 100 µM | MDA-MB-231 > 100 µM | SF-268 > 100 µM | HL-60 > 100 µM | TK-10 > 100 µM | SNB-19 > 100 µM | BT-549 > 100 µM | MOLT-4 > 10 µM | HCT-116 > 100 µM | SF-539 > 100 µM | MDA-N > 100 µM | RXF 393 > 100 µM | NCI-H23 > 100 µM | UO-31 > 100 µM | T47D > 100 µM | SK-OV-3 > 100 µM | UACC-62 > 100 µM | SW-620 > 100 µM | NCI-H460 > 100 µM | SK-MEL-2 > 100 µM | U-251 > 100 µM | Hs-578T > 100 µM | HT-29 > 100 µM | SK-MEL-5 > 100 µM | OVCAR-8 > 100 µM | IGROV-1 > 100 µM | SF-295 > 100 µM | OVCAR-5 > 100 µM | EKVX > 100 µM | M14 > 100 µM | ACHN > 100 µM | SN12C > 100 µM
